Measured values: patent publication US20100137303A1, “NEW COMPOUND 255” (AstraZeneca AB, priority 2008, published 2010)
Converted amounts (≈) assume the structure as drawn.

How the values were obtained:
Spn548 = test: Bacterial susceptibility testing in liquid media, Spn548 MIC; settings: Streptococcus pneumoniae, 24 h, read-out: Spn548 Mean MIC
Text: (§1) Compounds may be tested for antimicrobial activity by susceptibility testing in liquid media. Compounds may be dissolved in dimethylsulfoxide and tested in 10 doubling dilutions in the susceptibility assays. The organisms used in the assay may be grown overnight on suitable agar media and then suspended in a liquid medium appropriate for the growth of the organism. The suspension can be a 0.5 McFarland and a further 1 in 10 dilution can be made into the same liquid medium to prepare the final organism suspension in 100 μL. Plates can be incubated under appropriate conditions at 37° C. for 24 hrs prior to reading.

M. tuberculosis = test: Mycobacteria susceptibility testing, Microplate Alamar Blue Assay, Mtu MIC; format: cell-based, Mycobacterium tuberculosis (Mtu); settings: Mycobacterium tuberculosis
Msm. GyrB = molecular target: T1, Msm. GyrB (Mycolicibacterium smegmatis, UniProt A0QNE0); test: Msmegmatis GyrB enzyme assay (ATPase, malachite green phosphate detection); format: biochemical; settings: read-out: Msm_GyrB IC50
T1 construct: 15 nM Msm; GyrB, 650 μM ATP, and compound in dimethyl sulfoxide
Procedure: Compounds may be tested for inhibition of GyrB ATPase activity using an ammonium molybdate/malachite green-based phosphate detection assay (Lanzetta, P. A., L. J. Alvarez, P. S. Reinach, and O. A. Candia, 1979, 100: 95-97; Innova Biosciences malachite green detection kit). Assays can be performed in multi-well plates in 50 μl reactions containing: 50 mM HEPES buffer pH 7.7, 250 mM potassium glutamate, 200 mM potassium chloride, 2 mM magnesium chloride, 2% glycerol, 1 mM 1,4-Dithio-DL-threitol, 0.005% Brij-35, 15 nM Msm. GyrB, 650 μM ATP, and compound in dimethyl sulfoxide. Reactions can be quenched with 12.5 μl of ammonium molybdate/malachite green detection reagent (Pi color lock gold & accelerator mix; Innova Biosciences), followed by the addition of 5 μl of stabilizer (Innova Biosciences) after 5 min of incubation.

Eco-tolC = test: Bacterial susceptibility testing in liquid media, Eco-tolC MIC; settings: Escherichia coli, read-out: Eco-tolC MIC
Text: as §1

T1 sequence (A0QNE0 whole entry): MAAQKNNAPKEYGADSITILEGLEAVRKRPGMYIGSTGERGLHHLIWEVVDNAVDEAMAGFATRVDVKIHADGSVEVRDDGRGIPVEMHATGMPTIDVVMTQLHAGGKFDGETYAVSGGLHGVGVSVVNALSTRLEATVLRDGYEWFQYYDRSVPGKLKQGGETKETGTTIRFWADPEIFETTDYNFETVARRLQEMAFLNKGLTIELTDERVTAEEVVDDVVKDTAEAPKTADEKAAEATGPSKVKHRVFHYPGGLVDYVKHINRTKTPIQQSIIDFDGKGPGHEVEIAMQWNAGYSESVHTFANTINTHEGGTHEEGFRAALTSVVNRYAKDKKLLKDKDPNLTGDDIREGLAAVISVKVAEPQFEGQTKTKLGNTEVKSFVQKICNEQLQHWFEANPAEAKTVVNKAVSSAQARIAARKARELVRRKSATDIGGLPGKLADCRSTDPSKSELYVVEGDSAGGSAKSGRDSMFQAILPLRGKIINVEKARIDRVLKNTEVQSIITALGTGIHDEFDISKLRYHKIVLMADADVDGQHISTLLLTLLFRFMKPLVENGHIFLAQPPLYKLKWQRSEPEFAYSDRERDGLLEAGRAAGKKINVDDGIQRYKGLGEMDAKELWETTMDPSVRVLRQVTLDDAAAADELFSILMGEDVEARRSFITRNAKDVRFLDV

Structure (SMILES)	MIC (Spn548) [µg/mL]	MIC (M. tuberculosis) [µg/mL]	IC50 (Msm. GyrB) [nM]	MIC (Eco-tolC) [µg/mL]
C=CCNC(=O)Nc1nc2cc(-c3cncc(C(=O)N(C)C)c3)c(C)nc2s1 [Example 13, 5-[2-(3-Allyl-ureido)-5-methyl-thiazolo[5,4-b]pyridin-6-yl]-N,N-dimethyl-nicotinamide]	4 (≈ 10.1 µM)	> 32	644	> 32
C=CCNC(=O)Nc1nc2cc(Br)cnc2o1 [Example 14, 1-allyl-3-(6-bromooxazolo[5,4-b]pyridin-2-yl)urea]	16 (≈ 53.9 µM)	> 16	24700	32 (≈ 108 µM)
C=CCNC(=O)Nc1nc2cc(-c3cccnc3)cnc2o1 [Example 15, 1-allyl-3-(6-(pyridin-3-yl)oxazolo[5,4-b]pyridin-2-yl)urea]	16 (≈ 54.2 µM)	> 16	2000	> 64
C=CCNC(=O)Nc1nc2cc(-c3cnc(OC)nc3)c(C)nc2o1 [Example 16, 3-allyl-1-[6-(2-methoxypyrimidin-5-yl)-5-methyl-oxazolo[5,4-b]pyridin-2-yl]urea]	16 (≈ 47 µM)	> 32	1610	> 32
C=CCNC(=O)Nc1nc2cc(-c3cnc(OC)nc3)c(OCCN(C)C)nc2s1 [Example 17, 1-allyl-3-(5-(2-(dimethylamino)ethoxy)-6-(2-methoxypyrimidin-5-yl)thiazolo[5,4-b]pyridin-2-yl)urea]	16 (≈ 37.3 µM)	> 64	216	> 64
CCNC(=O)Nc1nc2cc(-c3cnc(OC)nc3)cnc2o1 [Example 18, 1-ethyl-3-[6-(2-methoxypyrimidin-5-yl)[1,3]oxazolo[5,4-b]pyridin-2-yl]urea]	> 32	> 32	10900	> 32
C=CCNC(=O)Nc1nc2cc(-c3cncc(C(=O)NCCCN4CCCC4=O)c3)cnc2s1 [Example 19, N-[3-(2-oxopyrrolidin-1-yl)propyl]-5-{2-[(prop-2-en-1-ylcarbamoyl)amino][1,3]thiazolo[5,4-b]pyridin-6-yl}pyridine-3-carboxamide]	> 32	32 (≈ 66.7 µM)	297	> 32
C=CCNC(=O)Nc1nc2cc(-c3cnc(OC)nc3)c(OCCN3CCCC3)nc2s1 [Example 20, 1-[6-(2-methoxypyrimidin-5-yl)-5-(2-pyrrolidin-1-ylethoxy)[1,3]thiazolo[5,4-b]pyridin-2-yl]-3-prop-2-en-1-ylurea]	> 32	> 32	259	> 32
C=CCNC(=O)Nc1nc2cc(-c3cncc(C(=O)NCC4CCOCC4)c3)cnc2s1 [Example 21, 5-{2-[(prop-2-en-1-ylcarbamoyl)amino][1,3]thiazolo[5,4-b]pyridin-6-yl}-N-(tetrahydro-2H-pyran-4-ylmethyl)pyridine-3-carboxamide]	> 32	> 64	236	> 32
C=CCNC(=O)Nc1nc2cc(-c3cncc(C(=O)NC)c3)cnc2s1 [Example 22, N-methyl-5-{2-[(prop-2-en-1-ylcarbamoyl)amino][1,3]thiazolo[5,4-b]pyridin-6-yl}pyridine-3-carboxamide]	> 32	> 64	323	> 32
C=CCNC(=O)Nc1nc2cc(-c3cncc(C(=O)NCC)c3)cnc2s1 [Example 23, N-ethyl-5-{2-[(prop-2-en-1-ylcarbamoyl)amino][1,3]thiazolo[5,4-b]pyridin-6-yl}pyridine-3-carboxamide]	> 32	> 64	404	> 32
C=CCNC(=O)Nc1nc2cc(-c3cncc(C(=O)NCCC(C)C)c3)cnc2s1 [Example 24, N-(3-methylbutyl)-5-{2-[(prop-2-en-1-ylcarbamoyl)amino][1,3]thiazolo[5,4-b]pyridin-6-yl}pyridine-3-carboxamide]	> 32	> 64	583	> 32
